Data: patent US9034891B2, “Bicyclic heterocyclic spiro compounds” (ISRAEL INSTITUTE FOR BIOLOGICAL RESEARCH, priority 2009, dated 2015)
Like-named read-outs stand apart in the source and are kept apart here.

Assays:
[1] = system: M2-M5 mAChR subtypes; assay: Intracellular Ca2+ mobilization in cells stably transfected with M2-M5 mAChR subtypes; format: cell-based
Source text: To evaluate selectivity for a subtype of mAChR, in particular the M1 mAChR vs. M3 and MS mAChR, the assays were calibrated using ligands that have a combined activity, e.g. M1 agonistic and M3 antagonistic or M1 agonistic and MS antagonistic profiles, respectively. This can eliminate effects due to different receptor reserves in cell-based assays.

[2] = target: α-4β2 nicotinic receptor (Homo sapiens, UniProt P17787+P43681); assay: Binding to α4β2 nicotinic receptor; settings: 0.1 nM-10 μM
Sequence of α-4β2 nicotinic receptor (P43681 29-627 limits assumed): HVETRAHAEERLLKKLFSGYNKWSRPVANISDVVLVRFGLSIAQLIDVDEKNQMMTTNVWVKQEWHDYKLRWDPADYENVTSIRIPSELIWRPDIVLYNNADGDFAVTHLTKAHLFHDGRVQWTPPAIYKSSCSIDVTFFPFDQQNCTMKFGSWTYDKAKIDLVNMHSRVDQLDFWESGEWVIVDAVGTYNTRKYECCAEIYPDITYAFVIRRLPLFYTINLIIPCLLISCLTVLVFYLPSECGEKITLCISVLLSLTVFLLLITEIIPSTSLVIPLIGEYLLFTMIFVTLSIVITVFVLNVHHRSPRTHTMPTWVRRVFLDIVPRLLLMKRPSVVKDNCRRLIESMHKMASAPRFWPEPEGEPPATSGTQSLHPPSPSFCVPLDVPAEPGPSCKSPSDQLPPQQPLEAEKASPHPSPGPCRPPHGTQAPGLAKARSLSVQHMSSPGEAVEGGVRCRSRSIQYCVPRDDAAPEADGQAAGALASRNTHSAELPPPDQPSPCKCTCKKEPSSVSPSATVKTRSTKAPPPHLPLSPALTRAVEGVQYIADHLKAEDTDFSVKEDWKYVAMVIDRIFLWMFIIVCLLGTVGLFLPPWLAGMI
Sequence of α-4β2 nicotinic receptor (P17787 26-502): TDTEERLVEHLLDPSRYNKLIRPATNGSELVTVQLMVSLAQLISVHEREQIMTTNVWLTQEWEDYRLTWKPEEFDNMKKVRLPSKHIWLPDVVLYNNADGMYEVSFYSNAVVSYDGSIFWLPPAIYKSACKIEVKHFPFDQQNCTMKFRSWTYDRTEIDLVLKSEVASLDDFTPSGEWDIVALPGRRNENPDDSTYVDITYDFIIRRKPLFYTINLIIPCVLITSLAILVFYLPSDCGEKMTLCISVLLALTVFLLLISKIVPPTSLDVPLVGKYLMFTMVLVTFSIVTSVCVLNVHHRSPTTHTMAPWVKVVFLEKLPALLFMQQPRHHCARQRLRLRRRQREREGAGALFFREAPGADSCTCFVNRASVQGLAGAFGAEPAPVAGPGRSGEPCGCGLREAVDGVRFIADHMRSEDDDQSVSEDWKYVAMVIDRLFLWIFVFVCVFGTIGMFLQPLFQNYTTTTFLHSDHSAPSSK
Source text: It was specifically designed to provide information not only on potential limitations of drug candidates, but also for off-target activity identification. […] In a further extension of this study, functional studies were done on most of these receptors.

[3] = system: ERK 1/2 phosphorylation; assay: Phospho-p44/42 MAPK (ERK 1/2) detection in PC12M1 cells; format: cell-based, rat; settings: 3 hours
[4] = system: Wistar rats; assay: Passive avoidance, trihexyphenidyl-induced memory impairment in rats; format: in vivo, rat
Source text: Trihexyphenidyl is a selective M1 muscarinic antagonist that crosses the blood brain barrier and induces memory and learning impairments (Bymaster et al., J Pharmacol Exp. Ther. 267: 16-24, 1993; Roldan et al., Neurosci. Lett. 230: 93-96, 1997; Kimura et al., Brain Res. 834: 6-12, 1999). […] Naive Wistar rats were used in the experiments below. The passive avoidance (PA) task consists of a training (acquisition) phase and a retention phase. In the training procedure each rat was individually placed in the small illuminated compartment and after 60 s. of familiarization/adaptation, the door to the large compartment was opened and the latency to enter was measured (Initial Latency) Immediately following entry into the dark compartment, the door was closed and inescapable foot shock (0.6 mA for 3 s) was delivered through the grid floor. […] After the acquisition trial the rat was returned to its home cage. Retention of the passive avoidance task was measured 24 h later, by again placing the rat in the light compartment and after a 60 s adaptation interval, the door was opened and the latency to re-enter the dark compartment was measured. […] Two separate experiments were conducted. […] In both experiments the rats were divided into 2 groups. One main group was treated with trihexyphenidyl (5 mg/kg, s.c) and the second main group was treated with vehicle (DDW-1 ml/kg, s.c.), 30 min before the shock.
In a further extension of these studies, retention of the passive avoidance task was measured 72 h later, by again placing the rat in the light compartment and after a 60 s adaptation interval, the door was opened and the latency to re-enter the dark compartment was measured. A cutoff point of 600 s was used for retention latency. […] Rats were divided into 2 groups. One group (N=30) was treated with trihexyphenidyl (5 mg/kg, s.c) and the second group (N=29) was treated with vehicle (DDW-1 ml/kg, s.c.), 30 min before the shock.

[5] = target: T1, M1 mAChR (Rattus norvegicus, UniProt P08482); settings: [3H]PZ, rat cortical membranes
T1 sequence (P08482 1-460): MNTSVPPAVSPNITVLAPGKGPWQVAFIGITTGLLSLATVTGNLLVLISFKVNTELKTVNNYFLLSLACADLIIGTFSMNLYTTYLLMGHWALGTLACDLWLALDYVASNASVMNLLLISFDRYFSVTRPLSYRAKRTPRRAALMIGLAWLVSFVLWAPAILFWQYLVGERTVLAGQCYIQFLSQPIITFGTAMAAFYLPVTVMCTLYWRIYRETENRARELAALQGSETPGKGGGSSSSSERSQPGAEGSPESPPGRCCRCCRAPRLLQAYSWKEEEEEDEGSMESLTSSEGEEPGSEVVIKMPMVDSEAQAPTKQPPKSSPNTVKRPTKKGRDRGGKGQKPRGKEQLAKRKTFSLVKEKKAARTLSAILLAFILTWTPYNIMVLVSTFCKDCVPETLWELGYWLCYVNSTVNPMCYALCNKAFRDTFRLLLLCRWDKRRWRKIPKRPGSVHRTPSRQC

[6] = target: T1, M1 mAChR; assay: biochemical

`C[C@@H]1SC2(CCN(C)CC2)CN1C(=O)CCc1c[nH]c2ccccc12` (single isomer, unassigned) [AF710B] was tested. Which “agonistic activity on the M2-M5 mAChR subtypes” value [1] did it give?
Its value is “did not show detectable agonistic activity”.

What about the “binding to α-4β2 nicotinic receptor” value [2] of the same compound?
Its value is “does not bind”.

What about the “phospho-ERK1/2, compound alone” value [3] of the same compound?
Its value is “does not increase”.

What about the retention latency ([4]; 1 μg/kg po, 72 h, cutoff 600 s, trihexyphenidyl+DDW 98.6±28.0, control 568.7±23.7) of the same compound?
The retention latency was 276.3 ± 60.7 s.

What about the retention latency ([4]; 10 μg/kg po, 72 h, cutoff 600 s) of the same compound?
Its retention latency is 272.7 ± 51.6 s.

And the retention latency ([4]; AF710B 10 μg/kg with NE-100 1 mg/kg)?
The retention latency was 185.4 ± 44.0 s.

And the retention latency ([4]; Experiment 1, 10 μg/kg po, 24 h, cutoff 300 s, trihexyphenidyl+DDW 54.22±14.60, control 242.00±30.60)?
Its retention latency is 252.50 ± 32.30 s.

What about the retention latency ([4]; Experiment 1, 30 μg/kg po, 24 h, cutoff 300 s) of the same compound?
The retention latency was 178.82 ± 32.70 s.

What about the retention latency ([4]; Experiment 1, 100 μg/kg po, 24 h, not different from trihexyphenidyl+DDW) of the same compound?
The retention latency was 122.00 ± 34.60 s.

What about the retention latency ([4]; Experiment 2, 1 μg/kg po, 24 h, trihexyphenidyl+DDW 63.89±18.79, control 274.70±20.8) of the same compound?
Its retention latency is 215.6 ± 36.00 s.

And the retention latency ([4]; Experiment 2, 3 μg/kg po, 24 h)?
Its retention latency is 219.80 ± 36.00 s.

And the retention latency ([4]; NE-100 experiment, AF710B 10 μg/kg, trihexyphenidyl+DDW 122.0±29.2, control 525.7±51.0)?
The retention latency was 361.7 ± 67.1 s.

And the “cognitive enhancer dose range” value ([4]; po, trihexyphenidyl-induced passive avoidance impairment)?
Its value is 1 to 30 µg/kg.

What about the “fraction of higher affinity binding site” value [5] of the same compound?
Its value is 29%.

What about the “fraction of lower affinity binding site” value [5] of the same compound?
The value was 71%.

What about the Ki ([5]; read-out: lower affinity binding site KL) of the same compound?
The Ki was 41 µM.

What about the Ki [6] of the same compound?
The Ki was 0.046 nM.

What about the Ki ([6]; KH, brucine experiment, without brucine) of the same compound?
Its Ki is 0.015 nM.

And the Ki ([6]; KH, with brucine 0.1 mM)?
The Ki was 0.034 nM.

What about the Ki ([6]; KL, brucine experiment, without brucine) of the same compound?
Its Ki is 34000 nM.

And the Ki ([6]; KL, with brucine 0.1 mM)?
Its Ki is 15000 nM.
